Biological target: T1, Arabidopsis thaliana PIN8 (Arabidopsis thaliana, UniProt Q9LFP6)
T1 sequence (Q9LFP6 1-367): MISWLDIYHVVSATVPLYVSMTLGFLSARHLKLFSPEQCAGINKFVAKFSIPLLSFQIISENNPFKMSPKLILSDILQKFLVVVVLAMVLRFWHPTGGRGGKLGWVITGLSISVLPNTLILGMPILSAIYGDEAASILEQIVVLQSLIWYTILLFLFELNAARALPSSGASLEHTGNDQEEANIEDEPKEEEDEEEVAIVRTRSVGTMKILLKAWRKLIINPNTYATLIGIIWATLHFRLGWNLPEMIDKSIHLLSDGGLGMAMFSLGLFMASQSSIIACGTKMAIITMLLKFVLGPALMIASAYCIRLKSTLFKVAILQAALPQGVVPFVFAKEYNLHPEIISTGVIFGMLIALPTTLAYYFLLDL
Experiment: SSM electrophysiology peak current response, wild-type PIN8 proteoliposomes
Format: biochemical

SMILES: O=C(O)c1ccccc1C(=O)Nc1cccc2ccccc12 [NPA, 1-N-naphthylphthalamic acid]
- effect of NPA on current response to 2,4-D (100 μM 2,4D in absence or presence of 20 µM NPA): inhibited
- peak width of SSM current response at various lipid-to-protein ratios (LPR) (LPR10 vs LPR50, variation is consistent with transport): does not change

— publication PMC11383987 (bioRxiv, 2024)
